The values that follow are results of earlier work, collected in patent US5872104A, “Combinations and methods for reducing antimicrobial resistance” (Oridigm Corporation, priority 1994, dated 1999).

≈ marks a conversion by molar mass, not a printed value. Entries after “also recorded” stand apart in the source; their conditions may differ. Read-outs that look alike come from different tables or passages of the source. A value given as a limit tells only on which side of the number the result lay.

One data set relates to anaerobic bacteria. Conditions: cited from earlier work.
Another data set concerns rRNA of S. cerevisiae. As to conditions: cited from earlier work.
The subject of data set [1] is DNA methylases from S. antibioticus. Conditions: non-sinefungin producer; cited from earlier work.
Data set [2] deals with Newcastle disease virion mRNA(guanine-7-)methyltransferase. As to conditions: cited from earlier work.
A further data set concerns S. antibioticus. Conditions: cited from earlier work.
In the next data set the test system is virion plaque formation. As to conditions: 10 μM; cited from earlier work.
The subject of the next data set is cutaneous Leishmaniasis. Conditions: mouse, in vivo; cited from earlier work.
For data set [3], the system named is RNA methyltransferase from Streptomyces antibioticus. Conditions: 50 μM; cited from earlier work.
The test system of another data set is tRNA methylation. Conditions: cited from earlier work.
In the next data set the test system is cellular toxicity. Conditions: cited from earlier work.
The subject of data set [4] is RNA methyltransferases from Streptomyces (S. antibioticus, S. incarnatus, S. griseolus). As to conditions: cited from earlier work.
In data set [5] the test system is vaccinia virion mRNA(nucleoside-2'-)methyltransferase. Conditions: cited from earlier work.
For data set [6], the system named is vaccinia virion mRNA(guanine-7)methyltransferase. As to conditions: cited from earlier work.
The test system of a further data set is Cryptosporidium parvum. Conditions: in vivo; cited from earlier work.
For data set [7], the system named is Staphylococcus aureus, methicillin susceptible. Conditions: in µg/mL; cited from earlier work.
The next data set concerns Moraxella catarrhalis. As to conditions: in µg/mL; cited from earlier work.
Another data set relates to Streptococcus pneumoniae. As to conditions: in µg/mL; cited from earlier work.
Data set [8] concerns Chlamydia pneumoniae (formerly TWAR). As to conditions: in µg/mL; cited from earlier work.
In data set [9] the test system is Streptococcus pyogenes (group A), erythromycin susceptible. As to conditions: cited from earlier work.
For a further data set, the system named is Legionella pneumophila. As to conditions: in µg/mL; cited from earlier work.
The subject of the next data set is Campylobacter species. As to conditions: in µg/mL; cited from earlier work.
A further data set has as its system Neisseria gonorrhoeae. As to conditions: in µg/mL; cited from earlier work.
For the next data set, the system named is Bacteroides fragilis. As to conditions: anaerobes; in µg/mL; cited from earlier work.
The test system of another data set is Viridans streptococci. Conditions: cited from earlier work.
Data set [10] concerns Staphylococcus aureus, methicillin resistant. As to conditions: cited from earlier work.
The test system of a further data set is Listeria monocytogenes. Conditions: in µg/mL; cited from earlier work.
The subject of a further data set is Clostridium perfringens. As to conditions: anaerobes; in µg/mL; cited from earlier work.
For data set [11] the following is noted: versus erythromycin; cited from earlier work.
Data set [12] relates to Streptococcus agalactactiae (group B). Conditions: in µg/mL; cited from earlier work.
For another data set, the system named is H. influenzae. As to conditions: versus erythromycin; cited from earlier work.
The next data set relates to Chlamydia trachomatis. As to conditions: in µg/mL; cited from earlier work.
The test system of another data set is Mycoplasma pneumoniae. Conditions: in µg/mL; cited from earlier work.
The subject of the next data set is Haemophilus influenzae. As to conditions: in µg/mL; cited from earlier work.

In the case of `CCC[C@@H]1C[C@@H](C(=O)N[C@@H]([C@H]2O[C@H](SC)[C@H](O)[C@@H](O)[C@H]2O)[C@H](C)Cl)N(C)C1` [clindamycin], the “activity against anaerobic bacteria” value in the data set on anaerobic bacteria is “potent against anaerobic bacteria”.
As for `Nc1ncnc2c1ncn2[C@@H]1O[C@H](C[C@@H](N)CC[C@H](N)C(=O)O)[C@@H](O)[C@H]1O` [sinefungin], the “rRNA methylation / stable 18S rRNA” value in the data set on rRNA of S. cerevisiae was “inhibits methylation of rRNA in S.cerevisiae and leads to a decrease in stable 18S rRNA”. For the same compound, the “inhibition of DNA methylases” value in [1] is on record as “noticeably inhibited”. In addition, the inhibition – broadly, the change of the read-out against control, counted positive when it falls – was “potent inhibitors” in data set [2]; 96% in data set [3]; “potent inhibitors” in data set [5]; 100% in [6] (100 μM); “potent inhibitors” in data set [6]. Besides, in the data set with S. antibioticus, the sporulation entry is given as “inhibits sporulation”. The “synthesis of DNA methyltransferases” value in the data set on S. antibioticus is given as “didn't inhibit the synthesis of DNA methyltransferases”. For the same compound, the “inhibition of virion plaque formation” value in the data set on virion plaque formation is listed as “significant inhibition of virion plaque formation”. Besides, in the data set with cutaneous Leishmaniasis, the optimum dosage is 4 mg/kg/day. The “optimum dosage: times lower than the LD50” value with cutaneous Leishmaniasis was 50 times. The “inhibition of methylation by base” value in the data set with tRNA methylation is “inhibits the methylation of adenine or guanine to a greater extent than cytosine in tRNA”; in the data set on tRNA methylation (listed as Sinefungin), “very strongly inhibits the methylation of G in position 2 and 7, and that of A in position 1 and 6”. Also, the cellular toxicity result is given as “no cellular toxicity was detected” in the data set with cellular toxicity (10 μM) and “significant cellular toxicity” in the data set on cellular toxicity (higher concentrations (above 10 μM)). In addition, the “inhibition of RNA methyltransferases” value in data set [4] is “strongly inhibit RNA methyltransferases; also recorded: inhibited RNA methyltransferase”. Further, the “usable dosage in rat model” value in the data set on Cryptosporidium parvum was 10 mg/kg/day.
As to `CC[C@H]1OC(=O)[C@H](C)[C@@H](O[C@H]2C[C@@](C)(OC)[C@@H](O)[C@H](C)O2)[C@H](C)[C@@H](O[C@@H]2O[C@H](C)C[C@H](N(C)C)[C@H]2O)[C@](C)(OC)C[C@@H](C)C(=O)[C@H](C)[C@@H](O)[C@]1(C)O` [Clarithromycin], the MIC90 was 0.12-0.24 in data set [7]; 0.25-1.0 in the data set with Moraxella catarrhalis; 0.015 in the data set with Streptococcus pneumoniae; 0.007 in [8]; 0.015 µg/mL (≈ 0.0201 µM) in data set [9]; 0.25 in the data set on Legionella pneumophila. Moreover, the MIC90 in the data set with Campylobacter species was 1.0-8.0; in the data set on Neisseria gonorrhoeae, 0.25-2.0; with Bacteroides fragilis it was 2.0-8.0; in the data set on Viridans streptococci, 0.03 µg/mL (≈ 0.0401 µM); in data set [10], more than 128 µg/mL; with Listeria monocytogenes it was 0.12-2.0. For the same compound, the MIC90 in the data set with Clostridium perfringens was 0.5-2.0; in [12], 0.03-0.25; with Chlamydia trachomatis, 0.06-0.125; in the data set on Mycoplasma pneumoniae it was 0.008-0.03; with Haemophilus influenzae, 2.0-16.0. Also, the stability result in data set [11] was “better stability properties”. The H. influenzae activity entry in the data set on H. influenzae is “enhanced H. influenzae activity”.
